Some test systems named below: LOX IMVI; HL-60; OVCAR-3; NCI-H226; CCRF-CEM; RXF 393; SNB-75; Hs-578T; K562; UO-31; RPMI-8226; SNB-19; ACHN; HCC 2998; SF-295; NCI-H23; MOLT-4; HOP-92; MCF7; EKVX.
Common to all, as to experiment: growth of human tumour cells (NCI), 48 h

SMILES strings stand for the structures.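 Cells were grown in 96-well plates and exposed to each compound for 48 hours at five concentrations; endpoints were interpolated linearly between bracketing concentrations, or set to the highest concentration if not reached. GI50 = concentration required for 50% inhibition of growth.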 The source made the active and inactive calls. Rule as the data show it: active = GI50 up to about 1.1 µM and inactive = higher.

Data on 3 compounds can be found in ChEMBL document CHEMBL1201862, “PubChem BioAssay data set” (2004).

For the compound `COC12OC3CC4(C)C(=CC3OC(OC(C)C1O)C2O)CCC1C4CCC2(C)C(c3ccc(=O)oc3)CCC12O` (stereo not given), the GI50 was 0.00137 µM (active) in the assay on LOX IMVI; 0.00139 µM (active) in the assay with HL-60; 0.00155 µM (active) in the assay on OVCAR-3; 0.00246 µM (active) with NCI-H226; 0.00125 µM (active) in the assay with CCRF-CEM; 0.00234 µM (active) in the assay with RXF 393. For the same compound, the GI50 was 0.00202 µM (active) in the assay with SNB-75; < 0.001 µM (active) in the assay on Hs-578T; 0.00237 µM (active) with K562; 0.0017 µM (active) in the assay with UO-31; 0.00177 µM (active) in the assay with RPMI-8226; 0.00213 µM (active) in the assay on SNB-19. For the same compound, the GI50 is 0.00181 µM (active) in the assay on ACHN; 0.00338 µM (active) with HCC 2998; 0.00176 µM (active) in the assay on SF-295; 0.00125 µM (active) with NCI-H23; 0.00105 µM (active) in the assay with MOLT-4; 0.00535 µM (active) in the assay on HOP-92. The GI50 in the assay on MCF7 is 0.00178 µM (active); in the assay on EKVX it was < 0.001 µM (active).

Regarding `Cc1ccccc1C1=C/C(=C(\SS/C(C(=O)c2ccc(OCC(=O)O)c(Cl)c2Cl)=C2\C=C(c3ccccc3C)SS2)C(=O)c2ccc(OCC(=O)O)c(Cl)c2Cl)SS1`, the GI50 is 6.82 µM (inactive) with LOX IMVI; 2.96 µM (inactive) in the assay with HL-60; 16.5 µM (inactive) in the assay with OVCAR-3; 17.9 µM (inactive) in the assay on NCI-H226; 12.5 µM (inactive) with CCRF-CEM; 22.4 µM (inactive) in the assay on RXF 393. The GI50 in the assay on SNB-75 is 34.7 µM (inactive); in the assay with Hs-578T it was 21.2 µM (inactive); in the assay with K562, 8.65 µM (inactive); in the assay with UO-31, 20.9 µM (inactive); in the assay with RPMI-8226, 21.5 µM (inactive); in the assay with SNB-19, 22.5 µM (inactive). The GI50 in the assay on ACHN is 23.2 µM (inactive); with HCC 2998, 39.4 µM (inactive); in the assay on SF-295, 31.3 µM (inactive); with NCI-H23, 21.5 µM (inactive); in the assay on MOLT-4, 19.9 µM (inactive); in the assay on HOP-92, 5.51 µM (inactive). The GI50 in the assay on MCF7 was 31.4 µM (inactive); with EKVX, 37.8 µM (inactive).

For `O=C(O)c1c2c(cc3c1CC1(Cc4ccccc4C1=O)C3)CCC2` (stereo not given), the GI50 is 23.8 µM (inactive) with LOX IMVI; 3.17 µM (inactive) in the assay with HL-60; 26.1 µM (inactive) with OVCAR-3; 24.3 µM (inactive) in the assay with NCI-H226; 9.91 µM (inactive) with CCRF-CEM; 25.8 µM (inactive) with RXF 393. Also, the GI50 in the assay on SNB-75 was 26.5 µM (inactive); with Hs-578T, 34 µM (inactive); with K562, 5.79 µM (inactive); in the assay with UO-31, 38 µM (inactive); with RPMI-8226, 18.4 µM (inactive); with SNB-19, 47 µM (inactive). Further, the GI50 in the assay on ACHN is 57 µM (inactive); in the assay with HCC 2998, 3.33 µM (inactive); in the assay on SF-295 it was 38.6 µM (inactive); with NCI-H23, 44 µM (inactive); in the assay with MOLT-4, 11.4 µM (inactive); with HOP-92, 25.5 µM (inactive). Further, the figures for the GI50 with MCF7 and with EKVX were 26.2 µM (inactive) and 33.9 µM (inactive), respectively.
